Laboratory results reported in patent publication US6875761B2 (Eisai Co., Ltd., priority 1997, dated 2005).
Where a name gives a salt, the structure may show the parent alone. Read-outs that look alike come from different tables or passages of the source. Each block holds one compound with its values, some of them ahead of it.

Legend:
serotonin 1A receptor = molecular target: T1, serotonin 1A receptor (Rattus norvegicus, UniProt P19327); test: Binding test on [3H] 8-hydroxy-dipropylaminotetralin, hippocampus receptor fraction; set-up: species or system SD rats
T1 construct: To the receptor fraction of the hippocampus were added a test compound and 0.5 nM of [^3H]; 8-hydroxy-dipropylaminotetralin; from tissue; host or cells: rat hippocampus membrane fraction
T1 sequence (P19327 1-422): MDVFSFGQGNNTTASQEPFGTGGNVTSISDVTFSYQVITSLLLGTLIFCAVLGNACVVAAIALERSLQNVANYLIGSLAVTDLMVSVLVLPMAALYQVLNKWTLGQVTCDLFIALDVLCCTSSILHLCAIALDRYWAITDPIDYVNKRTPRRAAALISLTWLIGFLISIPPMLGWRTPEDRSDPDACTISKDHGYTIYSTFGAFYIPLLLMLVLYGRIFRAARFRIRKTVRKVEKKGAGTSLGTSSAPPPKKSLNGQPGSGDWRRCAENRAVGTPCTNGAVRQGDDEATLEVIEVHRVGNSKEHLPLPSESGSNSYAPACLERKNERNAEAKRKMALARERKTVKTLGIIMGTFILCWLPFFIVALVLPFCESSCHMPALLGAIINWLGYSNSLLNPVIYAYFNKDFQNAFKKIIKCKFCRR

serotonin 2 receptor = molecular target: T2, serotonin 2 receptor (Rattus norvegicus, UniProt P14842); test: Binding test on [3H] ketanserin, cerebral cortex receptor fraction; set-up: species or system SD rats; settings: 0.3 nM [3H] ketanserin, 37° C. 15 min, read-out: 5HT2
T2 construct: To the receptor fraction of the cerebral cortex were added a test compound and 0.3 nM of [^3H] ketanserin; from tissue; host or cells: rat cerebral cortex membrane fraction

[1] = rat hippocampus receptor fraction, 0.5 nM [3H] 8-OH-DPAT, room temperature 30 min, read-out: 5HT1

T2 sequence (P14842 whole entry): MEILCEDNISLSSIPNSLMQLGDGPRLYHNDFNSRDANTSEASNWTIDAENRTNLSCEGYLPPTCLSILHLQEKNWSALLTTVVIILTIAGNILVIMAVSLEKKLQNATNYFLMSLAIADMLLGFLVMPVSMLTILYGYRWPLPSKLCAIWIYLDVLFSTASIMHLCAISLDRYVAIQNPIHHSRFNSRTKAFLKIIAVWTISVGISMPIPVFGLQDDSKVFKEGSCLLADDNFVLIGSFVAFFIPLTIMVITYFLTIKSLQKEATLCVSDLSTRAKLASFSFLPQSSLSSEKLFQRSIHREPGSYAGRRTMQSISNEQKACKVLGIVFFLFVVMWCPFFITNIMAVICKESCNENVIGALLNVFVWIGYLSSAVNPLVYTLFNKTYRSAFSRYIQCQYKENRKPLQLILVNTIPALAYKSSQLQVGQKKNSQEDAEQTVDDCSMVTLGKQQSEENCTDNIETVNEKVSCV

SMILES: CCNC(=O)Oc1ccc(-c2cc3ccccc3c(N3CCN(CC)CC3)n2)cc1 [Example 59]
Ki (serotonin 1A receptor): 16.3 nM
Ki (serotonin 2 receptor): 14.3 nM

SMILES: CCN1CCN(c2nc(-c3ccc(C#N)cc3)cc3ccccc23)CC1 [Example 62, 3-(4-Cyanophenyl)-1-(4-Ethylpiperazin-1-Yl)Isoquinoline Hydrochloride]
Ki (serotonin 1A receptor; [1]): 14.8 nM
Ki (serotonin 2 receptor): 4 nM

SMILES: CCN1CCN(c2nc(-c3ccc(C4=CCC(O)CC4)cc3)cc3ccccc23)CC1 (stereo not drawn) [Example 64, 3-[4-(4-Hydroxy-1-Cyclohexen-1-Yl)Phenyl]-1-(4-Ethylpiperazin-1-Yl)Isoquinoline Hydrochloride]
Ki (serotonin 1A receptor; [1]): 87 nM
Ki (serotonin 2 receptor): 8.5 nM

SMILES: CCN1CCN(c2nc(-c3ccc(N)cc3)cc3ccccc23)CC1 [Example 65, 3-(4-Aminophenyl)-1-(4-Ethylpiperazin-1-Yl)Isoquinoline Hydrochloride]
Ki (serotonin 1A receptor; [1]): 60.1 nM
Ki (serotonin 2 receptor): 33.5 nM

SMILES: CCN1CCN(c2nc(-c3ccc(N(C)C)cc3)cc3ccccc23)CC1 [Example 66, 3-[4-(N,N-Dimethylamino)Phenyl]-1-(4-Ethylpiperazin-1-Yl)Isoquinoline Dihydrochloride]
Ki (serotonin 1A receptor; [1]): 52.7 nM
Ki (serotonin 2 receptor): 21.6 nM

SMILES: CCN1CCN(c2nc(-c3ccc(NCCO)cc3)cc3ccccc23)CC1 [Example 67, 3-[4-(2-Hydroxyethyl)Aminophenyl]-1-(4-Ethylpiperazin-1-Yl)Isoquinoline Hydrochloride]
Ki (serotonin 1A receptor; [1]): 27.3 nM
Ki (serotonin 2 receptor): 6.6 nM

SMILES: CCN1CCN(c2nc(-c3ccc(NC(C)=O)cc3)cc3ccccc23)CC1 [Example 68, 3-(4-Acetamidephenyl)-1-(4-Ethylpiperazin-1-Yl)Isoquinoline Hydrochloride]
Ki (serotonin 1A receptor; [1]): 30.9 nM
Ki (serotonin 2 receptor): 94.1 nM

SMILES: CCC(=O)Nc1ccc(-c2cc3ccccc3c(N3CCN(CC)CC3)n2)cc1 [Example 69, 3-(4-Ethylcarbonylaminophenyl)-1-(4-Ethylpiperazin-1-Yl)Isoquinoline Hydrochloride]
Ki (serotonin 1A receptor; [1]): 17.2 nM
Ki (serotonin 2 receptor): 17.3 nM

SMILES: CCN1CCN(c2nc(-c3ccc(NS(=O)(=O)CC)cc3)cc3ccccc23)CC1 [Example 71, 3-(4-Ethylsulfonylaminophenyl)-1-(4-Ethylpiperazin-1-Yl)Isoquinoline Hydrochloride]
Ki (serotonin 1A receptor; [1]): 2 nM
Ki (serotonin 2 receptor): 1.5 nM

SMILES: CCCS(=O)(=O)Nc1ccc(-c2cc3ccccc3c(N3CCN(CC)CC3)n2)cc1 [Example 72, 3-(4-Propylsulfonylaminophenyl)-1-(4-Ethylpiperazin-1-Yl)Isoquinoline Hydrochloride]
Ki (serotonin 1A receptor; [1]): 15 nM
Ki (serotonin 2 receptor): 3.6 nM

SMILES: CCN1CCN(c2nc(-c3ccc(S(N)(=O)=O)cc3)cc3ccccc23)CC1 [Example 74, 3-(4-Sulfonamidephenyl)-1-(4-Ethylpiperazin-1-Yl)Isoquinoline Hydrochloride]
Ki (serotonin 1A receptor; [1]): 4.6 nM
Ki (serotonin 2 receptor): 7.7 nM

SMILES: CCN1CCN(c2nc(-c3ccc(S(=O)(=O)N4CCOCC4)cc3)cc3ccccc23)CC1 [Example 75, 3-[(4-Morpholinyl)Sulfonylphenyl]-1-(4-Ethylpiperazin-1-Yl)Isoquinoline Hydrochloride]
Ki (serotonin 1A receptor; [1]): 7.7 nM
Ki (serotonin 2 receptor): 10 nM

SMILES: CCN1CCN(c2nc(-c3ccc(S(=O)(=O)N4CCS(=O)(=O)CC4)cc3)cc3ccccc23)CC1 [Example 77, 3-[(1,1-Dioxythiomorpholinyl)Sulfonylphenyl]-1-(4-Ethylpiperazin-1-Yl)Isoquinoline Hydrochloride]
Ki (serotonin 1A receptor; [1]): 13.6 nM
Ki (serotonin 2 receptor): 90.5 nM

Results, then the compound that gave them:

Ki (serotonin 1A receptor; [1]): 5.7 nM
Ki (serotonin 2 receptor): 8.9 nM
SMILES: CCN1CCN(c2nc(-c3ccc(S(=O)(=O)N4CCSCC4)cc3)cc3ccccc23)CC1 [Example 76, 3-[(4-Thiomorpholinyl)Sulfonylphenyl]-1-(4-Ethylpiperazin-1-Yl)Isoquinoline Hydrochloride]

Ki (serotonin 1A receptor; [1]): 0.56 nM
Ki (serotonin 2 receptor): 1.9 nM
SMILES: CCN1CCN(c2nc(-c3ccc(CNS(=O)(=O)CC)cc3)cc3ccccc23)CC1 [Example 78, 3-(4-Ethylsulfonylaminomethylphenyl)-1-(4-Ethylpiperazin-1-Yl)Isoquinoline Hydrochloride]

Ki (serotonin 1A receptor; [1]): 5.8 nM
Ki (serotonin 2 receptor): 23 nM
SMILES: CCN1CCN(c2nc(-c3ccc(CCNS(=O)(=O)CC)cc3)cc3ccccc23)CC1 [Example 79, 3-(4-Ethylsulfonylaminoethylphenyl)-1-(4-Ethylpiperazin-1-Yl)Isoquinoline Hydrochloride]

Ki (serotonin 1A receptor; [1]): 0.8 nM
Ki (serotonin 2 receptor): 16.3 nM
SMILES: CCNS(=O)(=O)Cc1ccc(-c2cc3ccccc3c(N3CCN(CC)CC3)n2)cc1 [Example 80, 3-(4-Ethylaminosulfonylmethylphenyl)-1-(4-Ethylpiperazin-1-Yl)Isoquinoline Hydrochloride]

Ki (serotonin 1A receptor; [1]): 1.1 nM
Ki (serotonin 2 receptor): 15.1 nM
SMILES: CCCNS(=O)(=O)Cc1ccc(-c2cc3ccccc3c(N3CCN(CC)CC3)n2)cc1 [Example 81, 3-(4-Propylaminosulfonylmethylphenyl)-1-(4-Ethylpiperazin-1-Yl)Isoquinoline Hydrochloride]

Ki (serotonin 1A receptor; [1]): 0.2 nM
Ki (serotonin 2 receptor): 10.8 nM
SMILES: CCN1CCN(c2nc(-c3ccc(CS(=O)(=O)N(CC)CC)cc3)cc3ccccc23)CC1 [Example 82, 3-[4-(N,N-diethylamino)sulfonylmethylphenyl]-1-(4-ethylpiperazin-1-yl)isoquinoline Hydrochloride]

Ki (serotonin 1A receptor; [1]): 75.6 nM
Ki (serotonin 2 receptor): 4.3 nM
SMILES: CCN1CCN(c2nc(-c3ccc(C4CCOCC4)cc3)cc3ccccc23)CC1 [Example 83, 3-[4-(Tetrahydropyran-4-yl)phenyl]-1-(4-ethylpiperazin-1-yl)isoquinoline Hydrochloride]

Ki (serotonin 1A receptor; [1]): 72.1 nM
Ki (serotonin 2 receptor): 0.9 nM
SMILES: CCN1CCN(c2nc(-c3ccc(C4=CCOCC4)cc3)cc3ccccc23)CC1 [Example 84, 3-[4-(5,6-Dihydro-2H-pyran-4-yl)phenyl]-1-(4-ethylpiperazin-1-yl)isoquinoline Hydrochloride]

Ki (serotonin 1A receptor; [1]): 18.7 nM
Ki (serotonin 2 receptor): 9.7 nM
SMILES: CCC(=O)NCc1ccc(-c2cc3ccccc3c(N3CCN(CC)CC3)n2)cc1 [Example 85, 3-(4-Ethylcarbonylaminomethylphenyl)-1-(4-ethylpiperazin-1-yl)isoquinoline Hydrochloride]

Ki (serotonin 1A receptor; [1]): 11.7 nM
Ki (serotonin 2 receptor): 5.3 nM
SMILES: CCCC(=O)NCc1ccc(-c2cc3ccccc3c(N3CCN(CC)CC3)n2)cc1 [Example 86, 3-(4-Propylcarbonylaminomethylphenyl)-1-(4-ethylpiperazin-1-yl)isoquinoline Hydrochloride]

Ki (serotonin 1A receptor; [1]): 16.9 nM
Ki (serotonin 2 receptor): 17 nM
SMILES: CCNC(=O)Cc1ccc(-c2cc3ccccc3c(N3CCN(CC)CC3)n2)cc1 [Example 87, 3-(4-Ethylaminocarbonylmethylphenyl)-1-(4-ethylpiperazin-1-yl)isoquinoline Hydrochloride]

Ki (serotonin 1A receptor; [1]): 9.4 nM
Ki (serotonin 2 receptor): 11.7 nM
SMILES: CCCNC(=O)Cc1ccc(-c2cc3ccccc3c(N3CCN(CC)CC3)n2)cc1 [Example 88, 3-(4-Propylaminocarbonylmethylphenyl)-1-(4-ethylpiperazin-1-yl)isoquinoline Hydrochloride]

Ki (serotonin 1A receptor; [1]): 6.3 nM
Ki (serotonin 2 receptor): 10 nM
SMILES: CCCCNC(=O)Cc1ccc(-c2cc3ccccc3c(N3CCN(CC)CC3)n2)cc1 [Example 89, 3-(4-Butylaminocarbonylmethylphenyl)-1-(4-ethylpiperazin-1-yl)isoquinoline Hydrochloride]

Ki (serotonin 1A receptor; [1]): 4.5 nM
Ki (serotonin 2 receptor): 12.9 nM
SMILES: CCN1CCN(c2nc(-c3ccc(CS(C)(=O)=O)cc3)cc3ccccc23)CC1 [Example 90, 3-(4-Methylsulfonylmethylphenyl)-1-(4-ethylpiperazin-1-yl)isoquinoline Hydrochloride]
